Experimental data published in ChEMBL document CHEMBL1135692, “Structure-activity relationships of the melanocortin tetrapeptide Ac-His-D-Phe-Arg-Trp-NH2 at the mouse melanocortin receptors. 4. Modifications at the Trp position” (J Med Chem, 2002).

What was measured:
Format in all cases: cell-based
Melanocortin receptor 5 = Melanocortin receptor 5 (Mus musculus, UniProt P41149); test: Activity in mouse melanocortin-5 receptor stably expressed in HEK293 cells
Melanocortin receptor 4 = Melanocortin receptor 4 (Mus musculus, UniProt P56450); test: Activity in mouse melanocortin-4 receptor stably expressed in HEK293 cells
Melanocortin receptor 4, sequence (P56450 whole entry): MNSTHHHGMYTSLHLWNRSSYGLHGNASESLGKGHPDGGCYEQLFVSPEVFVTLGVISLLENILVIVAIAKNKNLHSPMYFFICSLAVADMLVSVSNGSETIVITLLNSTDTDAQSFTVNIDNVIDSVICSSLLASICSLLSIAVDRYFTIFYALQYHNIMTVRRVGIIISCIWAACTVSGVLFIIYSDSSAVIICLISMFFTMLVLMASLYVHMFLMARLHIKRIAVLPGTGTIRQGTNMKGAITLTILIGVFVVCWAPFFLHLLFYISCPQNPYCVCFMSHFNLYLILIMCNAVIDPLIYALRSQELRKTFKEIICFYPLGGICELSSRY

[1] = molecular target: Melanocyte-stimulating hormone receptor (Mus musculus, UniProt Q01727); test: Activity in mouse melanocortin-1 receptor stably expressed in HEK293 cells
Melanocyte-stimulating hormone receptor, sequence (Q01727 whole entry): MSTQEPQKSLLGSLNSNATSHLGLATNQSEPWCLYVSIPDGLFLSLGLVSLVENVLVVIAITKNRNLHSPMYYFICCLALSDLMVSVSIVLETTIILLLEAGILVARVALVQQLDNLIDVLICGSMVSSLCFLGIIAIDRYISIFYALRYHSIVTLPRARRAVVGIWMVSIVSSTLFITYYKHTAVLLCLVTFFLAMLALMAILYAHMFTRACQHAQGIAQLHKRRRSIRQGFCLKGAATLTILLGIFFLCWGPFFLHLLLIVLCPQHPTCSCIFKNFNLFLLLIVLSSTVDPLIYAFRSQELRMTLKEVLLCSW

Melanocortin receptor 3 = Melanocortin receptor 3 (Mus musculus, UniProt P33033); test: Activity in mouse melanocortin-3 receptor (mMC3R) stably expressed in HEK293 cells
Melanocortin receptor 3, sequence (P33033 whole entry): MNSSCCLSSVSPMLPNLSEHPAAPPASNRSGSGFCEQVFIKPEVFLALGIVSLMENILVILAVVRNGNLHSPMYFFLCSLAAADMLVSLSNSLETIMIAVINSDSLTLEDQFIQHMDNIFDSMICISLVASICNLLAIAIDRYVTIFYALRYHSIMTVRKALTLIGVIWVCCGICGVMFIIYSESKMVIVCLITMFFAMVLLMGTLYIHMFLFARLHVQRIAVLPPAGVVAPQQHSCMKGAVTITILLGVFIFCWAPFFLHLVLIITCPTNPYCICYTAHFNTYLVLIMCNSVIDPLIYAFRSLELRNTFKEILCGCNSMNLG

Melanocortin receptor 5, sequence (P41149 whole entry): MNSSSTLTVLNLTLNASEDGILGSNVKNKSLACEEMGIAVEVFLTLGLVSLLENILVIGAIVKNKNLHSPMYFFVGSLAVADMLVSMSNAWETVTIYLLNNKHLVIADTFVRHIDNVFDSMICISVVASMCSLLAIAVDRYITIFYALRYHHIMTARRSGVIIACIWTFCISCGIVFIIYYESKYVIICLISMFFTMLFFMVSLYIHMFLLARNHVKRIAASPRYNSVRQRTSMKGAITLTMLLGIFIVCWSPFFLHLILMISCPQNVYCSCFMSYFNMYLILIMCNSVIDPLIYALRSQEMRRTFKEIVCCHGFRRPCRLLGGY

SMILES	EC50 (Melanocortin receptor 5)	EC50 (Melanocortin receptor 4)	EC50 [1]	EC50 (Melanocortin receptor 3)	EC50 (Melanocortin receptor 5; hek293)	EC50 (Melanocortin receptor 4; hek293)
CC(=O)N[C@@H](Cc1c[nH]cn1)C(=O)N[C@H](Cc1ccccc1)C(=O)N[C@@H](CCCN=C(N)N)C(=O)N[C@H](C(N)=O)C(c1ccccc1)c1ccccc1	7.1 µM	11.6 µM	2.3 µM			
CC(=O)N[C@@H](Cc1c[nH]cn1)C(=O)N[C@@H](Cc1ccccc1)C(=O)N[C@@H](CCCN=C(N)N)C(=O)N[C@@H](C(N)=O)C(c1ccccc1)c1ccccc1				53.3 µM		
CC(=O)N[C@@H](Cc1c[nH]cn1)C(=O)N[C@H](Cc1ccccc1)C(=O)N[C@@H](CCCN=C(N)N)C(=O)N[C@@H](Cc1ccccc1)C(N)=O	0.89 µM	7.8 µM	0.53 µM			
CC(=O)N[C@@H](Cc1c[nH]cn1)C(=O)N[C@@H](Cc1ccccc1)C(=O)N[C@@H](CCCN=C(N)N)C(=O)N[C@H](Cc1ccccc1)C(N)=O				27 µM		
CC(=O)N[C@@H](Cc1cnc[nH]1)C(=O)N[C@H](Cc1ccccc1)C(=O)N[C@@H](CCCN=C(N)N)C(=O)N1Cc2ccccc2C[C@H]1C(N)=O	0.7 µM	8.5 µM	0.043 µM	23.2 µM		
CC(=O)N[C@@H](Cc1cnc[nH]1)C(=O)N[C@H](Cc1ccccc1)C(=O)N[C@@H](CCCN=C(N)N)C(=O)N1Cc2ccccc2C[C@@H]1C(N)=O	24.8 µM	39.4 µM	1.5 µM	> 100 µM		
CC(=O)N[C@@H](Cc1c[nH]cn1)C(=O)N[C@H](Cc1ccccc1)C(=O)N[C@@H](CCCN=C(N)N)C(=O)N[C@@H](C)C(N)=O	38.4 µM	43.7 µM	4.4 µM	> 100 µM		
CC(=O)N[C@@H](Cc1cnc[nH]1)C(=O)NC(Cc1ccccc1)C(=O)N[C@@H](CCCNC(=N)N)C(=O)N[C@H](Cc1csc2ccccc12)C(N)=O (stereo in doubt) [listing 1 of 2 here]	0.0477 µM	0.143 µM	0.0799 µM			
CC(=O)N[C@@H](Cc1cnc[nH]1)C(=O)NC(Cc1ccccc1)C(=O)N[C@@H](CCCNC(=N)N)C(=O)N[C@H](Cc1csc2ccccc12)C(N)=O (stereo in doubt) [listing 2 of 2 here]				3.7 µM		
CC(=O)N[C@@H](Cc1cnc[nH]1)C(=O)NC(Cc1ccccc1)C(=O)N[C@@H](CCCNC(=N)N)C(=O)NC(Cc1c[nH]c2ccccc12)C(N)=O (stereo in doubt)					0.00396 µM	0.0172 µM
CC(=O)N[C@@H](Cc1cnc[nH]1)C(=O)NC(Cc1ccccc1)C(=O)N[C@@H](CCCNC(=N)N)C(=O)N[C@H](Cc1cccc2ccccc12)C(N)=O (stereo in doubt) [listing 1 of 2 here]	0.0331 µM	0.26 µM	0.73 µM			
CC(=O)N[C@@H](Cc1cnc[nH]1)C(=O)NC(Cc1ccccc1)C(=O)N[C@@H](CCCNC(=N)N)C(=O)N[C@H](Cc1cccc2ccccc12)C(N)=O (stereo in doubt) [listing 2 of 2 here]				3.5 µM		
CC(=O)N[C@@H](Cc1c[nH]cn1)C(=O)NC(Cc1ccccc1)C(=O)N[C@@H](CCCN=C(N)N)C(=O)NC(Cc1ccccc1)C(N)=O (stereo in doubt) [listing 1 of 2 here]	0.47 µM	1 µM	2.5 µM			
CC(=O)N[C@@H](Cc1c[nH]cn1)C(=O)NC(Cc1ccccc1)C(=O)N[C@@H](CCCN=C(N)N)C(=O)NC(Cc1ccccc1)C(N)=O (stereo in doubt) [listing 2 of 2 here]				15 µM		
CC(=O)N[C@@H](Cc1cnc[nH]1)C(=O)N[C@H](Cc1ccccc1)C(=O)N[C@@H](CCCN=C(N)N)C(=O)NC(Cc1c[nH]c2ccccc12)C(N)=O (stereo in doubt)	0.0353 µM	0.24 µM				
CC(=O)N[C@@H](Cc1cnc[nH]1)C(=O)NC(Cc1ccccc1)C(=O)N[C@@H](CCCNC(=N)N)C(=O)N[C@@H](Cc1cccc2ccccc12)C(N)=O (stereo in doubt) [listing 1 of 2 here]	0.75 µM	5.4 µM	0.75 µM			
CC(=O)N[C@@H](Cc1cnc[nH]1)C(=O)NC(Cc1ccccc1)C(=O)N[C@@H](CCCNC(=N)N)C(=O)N[C@@H](Cc1cccc2ccccc12)C(N)=O (stereo in doubt) [listing 2 of 2 here]				21.9 µM		
CC(=O)N[C@@H](Cc1c[nH]cn1)C(=O)NC(Cc1ccccc1)C(=O)N[C@@H](CCCN=C(N)N)C(=O)NC(Cc1ccc2ccccc2c1)C(N)=O (stereo in doubt) [listing 1 of 2 here]	0.0121 µM	0.0462 µM	0.127 µM			

SMILES	EC50 (Melanocortin receptor 5)	EC50 (Melanocortin receptor 4)	EC50 [1]	EC50 (Melanocortin receptor 3)	EC50 (Melanocortin receptor 5; hek293)	EC50 (Melanocortin receptor 4; hek293)
CC(=O)N[C@@H](Cc1c[nH]cn1)C(=O)NC(Cc1ccccc1)C(=O)N[C@@H](CCCN=C(N)N)C(=O)NC(Cc1ccc2ccccc2c1)C(N)=O (stereo in doubt) [listing 2 of 2 here]				1.62 µM		
CC(=O)N[C@@H](Cc1c[nH]cn1)C(=O)NC(Cc1ccccc1)C(=O)N[C@@H](CCCN=C(N)N)C(=O)N[C@H](Cc1ccc(-c2ccccc2)cc1)C(N)=O (stereo in doubt) [listing 1 of 2 here]	0.1 µM	2.7 µM	0.0519 µM			
CC(=O)N[C@@H](Cc1c[nH]cn1)C(=O)NC(Cc1ccccc1)C(=O)N[C@@H](CCCN=C(N)N)C(=O)N[C@H](Cc1ccc(-c2ccccc2)cc1)C(N)=O (stereo in doubt) [listing 2 of 2 here]				13.4 µM		
CC(=O)N[C@@H](Cc1cnc[nH]1)C(=O)NC(Cc1ccccc1)C(=O)N[C@@H](CCCNC(=N)N)C(=O)N[C@@H](Cc1ccc(-c2ccccc2)cc1)C(N)=O (stereo in doubt) [listing 1 of 2 here]	0.15 µM	1.5 µM	0.31 µM			
CC(=O)N[C@@H](Cc1cnc[nH]1)C(=O)NC(Cc1ccccc1)C(=O)N[C@@H](CCCNC(=N)N)C(=O)N[C@@H](Cc1ccc(-c2ccccc2)cc1)C(N)=O (stereo in doubt) [listing 2 of 2 here]				16.2 µM		
CC(=O)N[C@@H](Cc1cnc[nH]1)C(=O)NC(Cc1ccccc1)C(=O)N[C@@H](CCCNC(=N)N)C(=O)N[C@H](Cc1cccs1)C(N)=O (stereo in doubt) [listing 1 of 2 here]	0.85 µM	8.12 µM	2.78 µM			
CC(=O)N[C@@H](Cc1cnc[nH]1)C(=O)NC(Cc1ccccc1)C(=O)N[C@@H](CCCNC(=N)N)C(=O)N[C@H](Cc1cccs1)C(N)=O (stereo in doubt) [listing 2 of 2 here]				30.2 µM		
CC(=O)N[C@@H](Cc1cnc[nH]1)C(=O)NC(Cc1ccccc1)C(=O)N[C@@H](CCCNC(=N)N)C(=O)N[C@H](Cc1cnc[nH]1)C(N)=O (stereo in doubt) [listing 1 of 2 here]	36 µM	27.6 µM	3.8 µM			
CC(=O)N[C@@H](Cc1cnc[nH]1)C(=O)NC(Cc1ccccc1)C(=O)N[C@@H](CCCNC(=N)N)C(=O)N[C@H](Cc1cnc[nH]1)C(N)=O (stereo in doubt) [listing 2 of 2 here]				> 100 µM		
CC(=O)N[C@@H](Cc1c[nH]cn1)C(=O)NC(Cc1ccccc1)C(=O)N[C@@H](CCCN=C(N)N)C(=O)N[C@H](Cc1ccc2ccccc2c1)C(N)=O (stereo in doubt) [listing 1 of 2 here]	0.00486 µM	0.0158 µM	0.0179 µM			
CC(=O)N[C@@H](Cc1c[nH]cn1)C(=O)NC(Cc1ccccc1)C(=O)N[C@@H](CCCN=C(N)N)C(=O)N[C@H](Cc1ccc2ccccc2c1)C(N)=O (stereo in doubt) [listing 2 of 2 here]				0.74 µM		
CC(=O)N[C@@H](Cc1cnc[nH]1)C(=O)NC(Cc1ccccc1)C(=O)N[C@@H](CCCNC(=N)N)C(=O)NC(C(N)=O)C(c1ccccc1)c1ccccc1 (stereo in doubt) [listing 1 of 2 here]	7.44 µM	7.8 µM	0.68 µM			
CC(=O)N[C@@H](Cc1cnc[nH]1)C(=O)NC(Cc1ccccc1)C(=O)N[C@@H](CCCNC(=N)N)C(=O)NC(C(N)=O)C(c1ccccc1)c1ccccc1 (stereo in doubt) [listing 2 of 2 here]				16 µM		
CC(=O)N[C@@H](Cc1cnc[nH]1)C(=O)NC(Cc1ccccc1)C(=O)N[C@@H](CCCNC(=N)N)C(=O)N[C@H](Cc1ccncc1)C(N)=O (stereo in doubt) [listing 1 of 2 here]	14.5 µM	30 µM	2.24 µM			
CC(=O)N[C@@H](Cc1cnc[nH]1)C(=O)NC(Cc1ccccc1)C(=O)N[C@@H](CCCNC(=N)N)C(=O)N[C@H](Cc1ccncc1)C(N)=O (stereo in doubt) [listing 2 of 2 here]				> 100 µM		
CC(=O)N[C@@H](Cc1c[nH]cn1)C(=O)N[C@H](Cc1ccccc1)C(=O)N[C@@H](CCCN=C(N)N)C(=O)N[C@@]1(C(N)=O)CCc2ccccc2C1 (stereo in doubt; 20)	0.18 µM	3.46 µM	0.7 µM	9.9 µM		
CC(=O)N[C@@H](Cc1c[nH]cn1)C(=O)N[C@H](Cc1ccccc1)C(=O)N[C@@H](CCCN=C(N)N)C(=O)N[C@@]1(C(N)=O)CCc2ccccc2C1 (stereo in doubt; 21)	0.96 µM	8.8 µM	0.68 µM	33.5 µM		
